Patent publication US9416126B2, “Compounds inhibiting leucine-rich repeat kinase enzyme activity” (Merck Sharp & Dohme Corp., priority 2013, dated 2016)

How the values were obtained:
Assay type in all cases: biochemical
[1] = biological target: T1, LRRK2(G2019S mutation, GST-LRRK2(amino acids 970-2527)) (Homo sapiens (Human), UniProt Q5S007, G2019S); experiment: LRRK2 Km ATP LanthaScreen Assay; conditions: Km ATP (184 μM ATP solution), G2019S LRRK2, mean IC50
Method in brief: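 TR-FRET: GST-LRRK2 970-2527 G2019S (2.5 nM solution) preincubated 30 min with compound (98 μM top, 1:2.15 dilutions), then 800 nM fluorescein-LRRKtide and 184 μM ATP solution added for 60 min at room temperature in Tris pH 8.5 buffer. Stopped with EDTA and Tb anti-phospho-LRRKtide antibody; IC50 is a mean of several tests.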

[2] = biological target: T1, LRRK2(G2019S mutation, GST-LRRK2(amino acids 970-2527)); experiment: LRRK2 5 mM ATP LanthaScreen Assay
Description: The data presented for the 5 mM and Km ATP LanthaScreen™ Assay represents mean IC50 values based on several test results and may have reasonable. deviations depending on the specific conditions and reagents used. Reagents for the LRRK2 5 mM and Km ATP LanthaScreen™ Assay were purchased from Life Technologies Corporation.
LRRK2 5 mM ATP LanthaScreen™ Assay
a) 400 nl of a 1:2.15 serial dilution of test compound(98 μM top assay concentration) is spotted via Labcyte Echo to certain wells in a 384 well black, untreated plate. Control wells contain 400 nl of either DMSO or 400 nl of a known inhibitor in DMSO.
b) 10 μl of a 2.5 nM LRRK2(G2019S mutation, GST-LRRK2(amino acids 970-2527)) enzyme solution in 1× assay buffer(50 mM Tris pH 8.5, 10 mM MgCl2, 0.01% Brij-35, 1.0 mM EGTA, 2 mM DTT, 0.05 mM NaVO4) is added to all wells.
c) A 30 minute room temperature incubation is followed by addition of 10 μl of 800 nM fluorescein labeled LRRKtide peptide substrate and 10 mM ATP solution in 1× assay buffer to all wells.
d) After a 35 minute room temperature incubation, 20 μl of TR-FRET Dilution Buffer(Invitrogen PV3756B) containing 4 nM Tb-labeled anti-phospho LRRKtide antibody and 20 mM EDTA is added to all wells.
e) Plates are incubated at room temperature for 1 hour and read on an Envision™ multi-mode plate reader with LanthaScreen™ settings. Results are analysed using Assay Data Analyzer.

kinases [3] = biological target: kinases (Homo sapiens, UniProt P15056, V600E); experiment: Kinase selectivity using Z'-LYTE or Adapta; conditions: 1 μM of Example; Z-LYTE platform
kinases [4] = experiment: Kinase selectivity using Z'-LYTE or Adapta; conditions: 1 μM of Example

T1 sequence (Q5S007 970-2527 G2019S): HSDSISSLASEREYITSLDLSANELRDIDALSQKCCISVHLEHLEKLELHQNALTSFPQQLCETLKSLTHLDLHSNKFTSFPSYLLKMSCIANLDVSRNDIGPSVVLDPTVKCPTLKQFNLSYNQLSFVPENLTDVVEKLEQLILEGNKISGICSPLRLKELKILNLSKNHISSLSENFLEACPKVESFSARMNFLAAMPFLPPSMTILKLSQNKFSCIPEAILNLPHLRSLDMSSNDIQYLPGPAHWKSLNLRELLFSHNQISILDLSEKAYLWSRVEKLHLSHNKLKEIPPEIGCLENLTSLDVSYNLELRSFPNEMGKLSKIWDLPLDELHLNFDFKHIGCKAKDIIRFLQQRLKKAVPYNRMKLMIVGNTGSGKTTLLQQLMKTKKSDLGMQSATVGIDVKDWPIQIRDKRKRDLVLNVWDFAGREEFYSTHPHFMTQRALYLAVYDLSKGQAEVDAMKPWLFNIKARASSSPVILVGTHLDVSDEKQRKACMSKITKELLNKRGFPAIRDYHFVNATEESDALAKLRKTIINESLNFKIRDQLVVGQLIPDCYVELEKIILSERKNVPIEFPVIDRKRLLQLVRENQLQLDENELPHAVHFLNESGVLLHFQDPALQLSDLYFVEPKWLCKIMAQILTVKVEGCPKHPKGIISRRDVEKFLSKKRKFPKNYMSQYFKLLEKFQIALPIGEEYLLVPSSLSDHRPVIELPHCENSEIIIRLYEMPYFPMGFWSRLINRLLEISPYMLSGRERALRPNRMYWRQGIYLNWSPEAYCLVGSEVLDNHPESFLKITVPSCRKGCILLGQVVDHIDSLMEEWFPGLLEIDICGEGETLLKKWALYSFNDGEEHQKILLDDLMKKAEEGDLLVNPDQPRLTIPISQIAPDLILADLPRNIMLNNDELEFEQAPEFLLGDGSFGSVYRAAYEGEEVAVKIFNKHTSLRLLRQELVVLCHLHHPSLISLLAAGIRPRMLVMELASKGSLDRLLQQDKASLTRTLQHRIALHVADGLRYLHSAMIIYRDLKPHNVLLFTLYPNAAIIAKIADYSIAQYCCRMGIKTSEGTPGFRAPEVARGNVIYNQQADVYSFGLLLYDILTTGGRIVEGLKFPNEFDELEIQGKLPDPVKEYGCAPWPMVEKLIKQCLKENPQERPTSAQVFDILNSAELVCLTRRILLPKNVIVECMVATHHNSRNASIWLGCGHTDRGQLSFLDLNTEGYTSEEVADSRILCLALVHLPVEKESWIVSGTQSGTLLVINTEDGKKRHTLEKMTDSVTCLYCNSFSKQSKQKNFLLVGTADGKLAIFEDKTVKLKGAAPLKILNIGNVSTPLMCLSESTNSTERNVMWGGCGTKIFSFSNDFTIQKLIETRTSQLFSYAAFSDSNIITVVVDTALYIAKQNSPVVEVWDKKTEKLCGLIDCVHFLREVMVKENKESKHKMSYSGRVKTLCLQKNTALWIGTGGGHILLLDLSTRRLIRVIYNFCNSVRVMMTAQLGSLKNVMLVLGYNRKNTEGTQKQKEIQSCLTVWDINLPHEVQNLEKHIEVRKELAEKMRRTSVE
Sequence of kinases (Homo sapiens, UniProt P15056, V600E) (P15056 2-766 V600E limits assumed): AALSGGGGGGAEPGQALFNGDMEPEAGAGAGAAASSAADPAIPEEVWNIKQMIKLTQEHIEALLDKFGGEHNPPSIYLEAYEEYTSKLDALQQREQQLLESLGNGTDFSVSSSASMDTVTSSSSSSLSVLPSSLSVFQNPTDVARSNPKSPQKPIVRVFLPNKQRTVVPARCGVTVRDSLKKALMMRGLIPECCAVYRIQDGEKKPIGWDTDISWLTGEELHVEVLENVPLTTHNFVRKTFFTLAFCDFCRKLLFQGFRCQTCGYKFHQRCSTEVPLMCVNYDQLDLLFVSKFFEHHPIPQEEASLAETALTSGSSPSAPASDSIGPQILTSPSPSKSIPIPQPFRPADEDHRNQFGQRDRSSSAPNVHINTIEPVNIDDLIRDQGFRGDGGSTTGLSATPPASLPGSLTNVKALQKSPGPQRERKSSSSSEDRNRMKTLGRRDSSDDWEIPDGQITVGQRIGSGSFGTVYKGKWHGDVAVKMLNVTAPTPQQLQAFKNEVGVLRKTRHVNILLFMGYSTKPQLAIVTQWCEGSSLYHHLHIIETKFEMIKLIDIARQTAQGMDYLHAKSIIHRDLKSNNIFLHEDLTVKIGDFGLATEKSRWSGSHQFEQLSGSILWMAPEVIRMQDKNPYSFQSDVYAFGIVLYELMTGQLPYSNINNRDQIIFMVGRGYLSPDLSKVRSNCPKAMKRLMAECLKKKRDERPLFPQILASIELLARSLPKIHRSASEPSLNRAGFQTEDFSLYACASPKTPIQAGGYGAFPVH

CC(C)Oc1ccc2[nH]nc(-c3cc(N4CCN(CCF)CC4)ncn3)c2c1 [Example D15] was tested, and the IC50 [1] was 0.0055 µM, the IC50 [2] was 0.034 µM and the “percent inhibition BRAF V599E” value (kinases [3]) was 28%. For the same compound, the “percent inhibition IRAK1” value (kinases [4]; Adapta platform) was −3%, the “percent inhibition AURKB (Aurora B)” value (kinases [4]; Z-LYTE platform) was 18% and the “percent inhibition CDK1/cyclin B” value (kinases [4]; Z-LYTE platform) was 10%. For the same compound, the “percent inhibition CHEK2 (CHK2)” value (kinases [4]; Z-LYTE platform) was 13%, the “percent inhibition CLK2” value (kinases [4]; Z-LYTE platform) was 70% and the “percent inhibition DYRK1A” value (kinases [4]; Z-LYTE platform) was 30%. For the same compound, the “percent inhibition JAK3” value (kinases [4]; Z-LYTE platform) was 9%, the “percent inhibition MAPK1 (ERK2)” value (kinases [4]; Z-LYTE platform) was 16% and the “percent inhibition MAPK8 (JNK1)” value (kinases [4]; Z-LYTE platform) was 56%.
